Test: Long-term stability in spiked pooled human plasma

C[C@]12CC[C@H](O)CC1=CC[C@@H]1[C@@H]2CC[C@]2(C)C(c3cccnc3)=CC[C@@H]12 [Abiraterone]
Long-term stability, 1 month, -20°C Accuracy [%] (validation standard 2xLLOV): 96.2%
Long-term stability, 1 month, -80°C Accuracy [%] (validation standard 2xLLOV): 93.5%
Long-term stability, 2 month, -20°C Accuracy [%] (validation standard 2xLLOV): 101.0%
Long-term stability, 2 month, -80°C Accuracy [%] (validation standard 2xLLOV): 100.1%
Long-term stability, 3 month, -20°C Accuracy [%] (validation standard 2xLLOV): 97.2%
Long-term stability, 3 month, -80°C Accuracy [%] (validation standard 2xLLOV): 97.9%
Long-term stability, 6 weeks, 4°C, without daylight Accuracy [%] (validation standard 2xLLOV): 101.6%
Long-term stability, 1 month, -20°C Accuracy [%] (validation standard LLOV): 96.5%
Long-term stability, 1 month, -80°C Accuracy [%] (validation standard LLOV): 93.2%
Long-term stability, 2 month, -20°C Accuracy [%] (validation standard LLOV): 97.0%
Long-term stability, 2 month, -80°C Accuracy [%] (validation standard LLOV): 105.8%
Long-term stability, 3 month, -20°C Accuracy [%] (validation standard LLOV): 101.7%
Long-term stability, 3 month, -80°C Accuracy [%] (validation standard LLOV): 106.0%
Long-term stability, 6 weeks, 4°C, without daylight Accuracy [%] (validation standard LLOV): 110.7%
Long-term stability, 1 month, -20°C Accuracy [%] (validation standard MOV): 95.8%
Long-term stability, 1 month, -80°C Accuracy [%] (validation standard MOV): 93.5%
Long-term stability, 2 month, -20°C Accuracy [%] (validation standard MOV): 101.2%
Long-term stability, 2 month, -80°C Accuracy [%] (validation standard MOV): 102.9%
Long-term stability, 3 month, -20°C Accuracy [%] (validation standard MOV): 101.8%
Long-term stability, 3 month, -80°C Accuracy [%] (validation standard MOV): 100.6%
Long-term stability, 6 weeks, 4°C, without daylight Accuracy [%] (validation standard MOV): 106.4%
Long-term stability, 1 month, -20°C Accuracy [%] (validation standard ULOV): 98.3%
Long-term stability, 1 month, -80°C Accuracy [%] (validation standard ULOV): 93.2%
Long-term stability, 2 month, -20°C Accuracy [%] (validation standard ULOV): 102.5%
Long-term stability, 2 month, -80°C Accuracy [%] (validation standard ULOV): 103.2%
Long-term stability, 3 month, -20°C Accuracy [%] (validation standard ULOV): 99.7%
Long-term stability, 3 month, -80°C Accuracy [%] (validation standard ULOV): 100.6%
Long-term stability, 6 weeks, 4°C, without daylight Accuracy [%] (validation standard ULOV): 102.8%

CN(C)C(=O)c1cc2cnc(Nc3ccc(N4CCNCC4)cn3)nc2n1C1CCCC1 [Ribociclib]
Long-term stability, 1 month, -80°C Accuracy [%] (validation standard 2xLLOV): 98.5%
Long-term stability, 2 month, -20°C Accuracy [%] (validation standard 2xLLOV): 109.0%
Long-term stability, 2 month, -80°C Accuracy [%] (validation standard 2xLLOV): 112.4%
Long-term stability, 3 month, -80°C Accuracy [%] (validation standard 2xLLOV): 106.4%
Long-term stability, 6 weeks, 4°C, without daylight Accuracy [%] (validation standard 2xLLOV): 96.4%
Long-term stability, 1 month, -20°C Accuracy [%] (validation standard LLOV): 88.0%
Long-term stability, 1 month, -80°C Accuracy [%] (validation standard LLOV): 83.5%
Long-term stability, 2 month, -20°C Accuracy [%] (validation standard LLOV): 92.7%
Long-term stability, 2 month, -80°C Accuracy [%] (validation standard LLOV): 94.7%
Long-term stability, 3 month, -80°C Accuracy [%] (validation standard LLOV): 90.7%
Long-term stability, 6 weeks, 4°C, without daylight Accuracy [%] (validation standard LLOV): 76.6%
Long-term stability, 1 month, -80°C Accuracy [%] (validation standard MOV): 101.3%
Long-term stability, 2 month, -20°C Accuracy [%] (validation standard MOV): 108.6%
Long-term stability, 2 month, -80°C Accuracy [%] (validation standard MOV): 108.1%
Long-term stability, 3 month, -80°C Accuracy [%] (validation standard MOV): 104.3%
Long-term stability, 6 weeks, 4°C, without daylight Accuracy [%] (validation standard MOV): 107.4%
Long-term stability, 1 month, -20°C Accuracy [%] (validation standard ULOV): 91.9%
Long-term stability, 1 month, -80°C Accuracy [%] (validation standard ULOV): 90.7%
Long-term stability, 2 month, -20°C Accuracy [%] (validation standard ULOV): 98.7%
Long-term stability, 2 month, -80°C Accuracy [%] (validation standard ULOV): 98.8%
Long-term stability, 3 month, -80°C Accuracy [%] (validation standard ULOV): 92.7%
Long-term stability, 6 weeks, 4°C, without daylight Accuracy [%] (validation standard ULOV): 96.3%

Cc1c(C(=O)Nc2ccc(N3C[C@@H](C)O[C@@H](C)C3)nc2)cccc1-c1ccc(OC(F)(F)F)cc1 [Sonidegib]
Long-term stability, 1 month, -20°C Accuracy [%] (validation standard 2xLLOV): 106.2%
Long-term stability, 1 month, -80°C Accuracy [%] (validation standard 2xLLOV): 108.9%
Long-term stability, 2 month, -20°C Accuracy [%] (validation standard 2xLLOV): 111.0%
Long-term stability, 2 month, -80°C Accuracy [%] (validation standard 2xLLOV): 107.0%
Long-term stability, 3 month, -20°C Accuracy [%] (validation standard 2xLLOV): 96.1%
Long-term stability, 3 month, -80°C Accuracy [%] (validation standard 2xLLOV): 104.6%
Long-term stability, 6 weeks, 4°C, without daylight Accuracy [%] (validation standard 2xLLOV): 91.2%
Long-term stability, 1 month, -20°C Accuracy [%] (validation standard LLOV): 109.9%
Long-term stability, 1 month, -80°C Accuracy [%] (validation standard LLOV): 108.6%
Long-term stability, 2 month, -20°C Accuracy [%] (validation standard LLOV): 105.8%
Long-term stability, 2 month, -80°C Accuracy [%] (validation standard LLOV): 104.4%
Long-term stability, 3 month, -20°C Accuracy [%] (validation standard LLOV): 103.1%
Long-term stability, 3 month, -80°C Accuracy [%] (validation standard LLOV): 109.9%
Long-term stability, 6 weeks, 4°C, without daylight Accuracy [%] (validation standard LLOV): 89.3%
Long-term stability, 1 month, -20°C Accuracy [%] (validation standard MOV): 104.9%
Long-term stability, 1 month, -80°C Accuracy [%] (validation standard MOV): 108.0%
Long-term stability, 2 month, -20°C Accuracy [%] (validation standard MOV): 114.5%
Long-term stability, 2 month, -80°C Accuracy [%] (validation standard MOV): 119.3%
Long-term stability, 3 month, -20°C Accuracy [%] (validation standard MOV): 95.1%
Long-term stability, 3 month, -80°C Accuracy [%] (validation standard MOV): 99.2%
Long-term stability, 6 weeks, 4°C, without daylight Accuracy [%] (validation standard MOV): 106.1%
Long-term stability, 1 month, -20°C Accuracy [%] (validation standard ULOV): 106.5%
Long-term stability, 1 month, -80°C Accuracy [%] (validation standard ULOV): 105.4%
Long-term stability, 2 month, -20°C Accuracy [%] (validation standard ULOV): 122.3%
Long-term stability, 2 month, -80°C Accuracy [%] (validation standard ULOV): 122.3%
Long-term stability, 3 month, -20°C Accuracy [%] (validation standard ULOV): 89.3%
Long-term stability, 3 month, -80°C Accuracy [%] (validation standard ULOV): 100.0%
Long-term stability, 6 weeks, 4°C, without daylight Accuracy [%] (validation standard ULOV): 100.7%

Source: article PMC8699473, “An Easily Expandable Multi-Drug LC-MS Assay for the Simultaneous Quantification of 57 Oral Antitumor Drugs in Human Plasma” (Cancers, 2021)
